Measurements: ChEMBL document CHEMBL5338818, “Discovery of the First Potent, Selective, and In Vivo Efficacious Polo-like Kinase 4 Proteolysis Targeting Chimera Degrader for the Treatment of TRIM37-Amplified Breast Cancer” (J Med Chem, 2023)
Activity calls are given as the source filed them. The calls are words filed in the database; no cut-off is given here.

Legend:
[1] = Toxicity in nu/nu mouse xenografted with human MCF7 cells assessed as effect on liver at 20 mg/kg, ip administered once every other day for 21 days by HE staining based analysis; format: organism-based; conditions: in vivo, 504 h, time 21 day
[2] = Toxicity in nu/nu mouse xenografted with human MCF7 cells assessed as effect on heart at 20 mg/kg, ip administered once every other day for 21 days by HE staining based analysis; format: organism-based; conditions: in vivo, 504 h, time 21 day
[3] = biological target: T1, Serine/threonine-protein kinase PLK4 (Homo sapiens, UniProt O00444); experiment: Inhibition of PLK4 (unknown origin) incubated for 1 hr in presence of kinase tracer 236 by FRET assay
T1 sequence (O00444 whole entry): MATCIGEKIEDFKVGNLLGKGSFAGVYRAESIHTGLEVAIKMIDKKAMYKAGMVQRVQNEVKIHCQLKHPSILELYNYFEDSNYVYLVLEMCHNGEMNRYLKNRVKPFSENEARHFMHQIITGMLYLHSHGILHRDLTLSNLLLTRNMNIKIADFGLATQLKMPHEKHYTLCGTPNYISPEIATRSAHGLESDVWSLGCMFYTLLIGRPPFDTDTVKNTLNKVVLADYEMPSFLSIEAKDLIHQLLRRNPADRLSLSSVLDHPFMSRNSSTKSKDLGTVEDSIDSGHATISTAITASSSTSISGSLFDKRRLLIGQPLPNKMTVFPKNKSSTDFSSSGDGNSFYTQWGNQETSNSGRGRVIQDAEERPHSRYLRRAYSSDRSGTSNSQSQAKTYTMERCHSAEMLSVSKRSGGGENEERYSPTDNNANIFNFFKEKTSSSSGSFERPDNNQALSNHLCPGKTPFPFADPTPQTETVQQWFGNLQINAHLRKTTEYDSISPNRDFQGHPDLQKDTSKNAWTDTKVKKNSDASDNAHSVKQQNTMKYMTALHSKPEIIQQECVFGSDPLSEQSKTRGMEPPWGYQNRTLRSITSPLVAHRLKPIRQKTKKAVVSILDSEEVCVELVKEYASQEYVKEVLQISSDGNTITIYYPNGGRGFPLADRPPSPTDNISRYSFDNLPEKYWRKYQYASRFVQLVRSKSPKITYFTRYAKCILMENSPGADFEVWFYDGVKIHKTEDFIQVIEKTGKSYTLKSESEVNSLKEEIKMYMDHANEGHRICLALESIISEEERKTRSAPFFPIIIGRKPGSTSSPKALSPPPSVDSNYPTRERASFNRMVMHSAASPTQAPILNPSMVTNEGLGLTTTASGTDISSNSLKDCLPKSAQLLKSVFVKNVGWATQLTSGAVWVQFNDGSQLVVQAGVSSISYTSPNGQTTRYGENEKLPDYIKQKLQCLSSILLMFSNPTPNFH

[4] = Toxicity in nu/nu mouse xenografted with human MCF7 cells assessed as effect on kidney at 20 mg/kg, ip administered once every other day for 21 days by HE staining based analysis; format: organism-based; conditions: in vivo, 504 h, time 21 day
MCF7 [5] = experiment: Inhibition of human MCF7 cells migration at 0.1 to 1 uM by inverted microscopic analysis; format: functional, cell-based; conditions: dose 0.1-1 µM, time 48.0 hrs, TDE = time-dependent effect
[6] = Stability in human plasma assessed as compound remaining at 100 uM after 120 mins by LC-MS/MS analysis (reference value: 100%); format: ADME, cell-free; conditions: read-out: Stability
CYP2C19 = CYP2C19 (Homo sapiens, UniProt P33261); experiment: Inhibition of CYP2C19 in human liver microsomes at 10 uM using (+)-3-benzylnirvanol as substrate preincubated for 10 mins followed by NADPH regenerating system addition and measured after 15 mins by LC-MS/MS analysis relative to control; format: ADME, Microsome; conditions: probe (+)-3-benzylnirvanol (named as substrate in the text), time 25 min
[7] = Metabolic stability in human liver microsomes assessed as compound remaining at 100 uM incubated for 60 mins by LC-MS/MS analysis; format: ADME, Microsome; conditions: read-out: Stability
[8] = Metabolic stability in rat liver microsomes assessed as compound remaining at 100 uM incubated for 60 mins by LC-MS/MS analysis; format: ADME, Microsome; conditions: read-out: Stability
[9] = Metabolic stability in rat liver microsomes assessed as compound remaining at 100 uM incubated for 60 mins in presence of NADPH by LC-MS/MS analysis; format: ADME, Microsome; conditions: read-out: Stability
[10] = Stability in human plasma assessed as half life at 100 uM after 120 mins by LC-MS/MS analysis; format: ADME, cell-free
[11] = Half life in ICR mouse at 2 mg/kg, iv measured upto 24 hrs by LC-M/MS analysis; format: ADME, organism-based; conditions: in vivo
MCF7 [12] = experiment: Inhibition of colony formation in human MCF7 cells incubated for 14 days by crystal violet staining based assay; format: functional, cell-based; conditions: dose 0.05-1 µM, time 14.0 day
[13] = biological target: T2, Protein cereblon/Serine/threonine-protein kinase PLK4 (Homo sapiens, UniProt O00444+Q96SW2); experiment: Protac activity at CRBN/PLK4 in human MCF7 cells by Western blot analysis; format: cell-based
Target sequence in this assay (Q96SW2 whole entry, one chain of several): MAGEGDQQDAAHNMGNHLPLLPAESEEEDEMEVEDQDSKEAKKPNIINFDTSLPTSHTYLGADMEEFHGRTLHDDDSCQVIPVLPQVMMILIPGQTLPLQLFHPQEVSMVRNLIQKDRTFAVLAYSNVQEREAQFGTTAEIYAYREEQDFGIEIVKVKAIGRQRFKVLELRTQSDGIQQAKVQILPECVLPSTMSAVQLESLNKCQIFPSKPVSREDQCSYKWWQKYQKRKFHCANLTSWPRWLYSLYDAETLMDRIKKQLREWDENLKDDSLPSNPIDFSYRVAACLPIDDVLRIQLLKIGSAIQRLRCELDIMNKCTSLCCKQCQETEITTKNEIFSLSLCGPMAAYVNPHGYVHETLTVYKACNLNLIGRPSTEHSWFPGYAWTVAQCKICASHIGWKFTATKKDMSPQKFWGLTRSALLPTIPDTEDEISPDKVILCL

MCF7 [14] = experiment: Inhibition of human MCF7 cells migration incubated for 48 hrs by inverted microscopic analysis; format: functional, cell-based; conditions: dose 0.1-1 µM
MCF7 [15] = experiment: Antiproliferative activity against human MCF7 cells incubated for 5 days by CCK-8 assay; conditions: MCF7, 120 h
MCF7 [16] = experiment: Induction of cell senescence in human MCF7 cells assessed by increase SA-beta-Gal positive cells at 2 uM measured after 48 hrs; format: functional, cell-based
[17] = biological target: T2, Protein cereblon/Serine/threonine-protein kinase PLK4; experiment: Protac activity at CRBN/PLK4 in human MCF7 cells at 1 uM in presence of BAF by Western blot analysis; format: cell-based
Target sequence in this assay (Q96SW2 whole entry, looked up, one chain of several): as the sequence (Q96SW2 whole entry, one chain of several) above

[18] = Metabolic stability in mouse liver microsomes assessed as compound remaining at 100 uM incubated for 60 mins in presence of NADPH by LC-MS/MS analysis; format: ADME, Microsome; conditions: read-out: Stability
CYP2C9 = CYP2C9 (Homo sapiens, UniProt P11712); experiment: Inhibition of CYP2C9 in human liver microsomes at 10 uM using sulfaphenazole as substrate preincubated for 10 mins followed by NADPH regenerating system addition and measured after 15 mins by LC-MS/MS analysis relative to control; format: ADME, Microsome; conditions: time 25 min
[19] = biological target: T2, Protein cereblon/Serine/threonine-protein kinase PLK4; experiment: Protac activity at CRBN/PLK4 in human MCF7 cells at 1 uM in presence of MG132 by Western blot analysis; format: cell-based
Target sequence in this assay (Q96SW2 whole entry, looked up, one chain of several): as the sequence (Q96SW2 whole entry, one chain of several) above

[20] = biological target: T2, Protein cereblon/Serine/threonine-protein kinase PLK4; experiment: Protac activity at CRBN/PLK4 in human MCF7 cells at 10 uM incubated for 48 hrs by Western blot analysis; format: cell-based
Target sequence in this assay (Q96SW2 whole entry, looked up, one chain of several): as the sequence (Q96SW2 whole entry, one chain of several) above

[21] = Observed volume of distribution at steady state in ICR mouse at 2 mg/kg, iv measured upto 24 hrs by LC-M/MS analysis; format: ADME, organism-based; conditions: in vivo, read-out: Vdss
[22] = biological target: T2, Protein cereblon/Serine/threonine-protein kinase PLK4; experiment: Protac activity at CRBN/PLK4 in human MCF7 cells at 1 uM incubated for 48 hrs by Western blot analysis; format: cell-based
Target sequence in this assay (Q96SW2 whole entry, looked up, one chain of several): as the sequence (Q96SW2 whole entry, one chain of several) above

[23] = AUClast in ICR mouse at 20 mg/kg, ip measured upto 24 hrs by LC-M/MS analysis; format: ADME, organism-based; set-up: dose 20 mg/kg, time < 24 hrs, route ip; conditions: in vivo
[24] = Apparent permeability across apical to basolateral side in human Caco-2 cells at 2 uM incubated for 2 hrs by LC-MS/MS analysis; format: ADME, cell-based
Mus musculus = experiment: In vivo induction of PLK degradation in human MCF7 cells xenografted in nu/nu mouse at 20 mg/kg, ip administered once every other day for 21 days by western blotting analysis; format: functional, organism-based; conditions: time 21.0 day

Chain of CYP2C19 (P33261 whole entry): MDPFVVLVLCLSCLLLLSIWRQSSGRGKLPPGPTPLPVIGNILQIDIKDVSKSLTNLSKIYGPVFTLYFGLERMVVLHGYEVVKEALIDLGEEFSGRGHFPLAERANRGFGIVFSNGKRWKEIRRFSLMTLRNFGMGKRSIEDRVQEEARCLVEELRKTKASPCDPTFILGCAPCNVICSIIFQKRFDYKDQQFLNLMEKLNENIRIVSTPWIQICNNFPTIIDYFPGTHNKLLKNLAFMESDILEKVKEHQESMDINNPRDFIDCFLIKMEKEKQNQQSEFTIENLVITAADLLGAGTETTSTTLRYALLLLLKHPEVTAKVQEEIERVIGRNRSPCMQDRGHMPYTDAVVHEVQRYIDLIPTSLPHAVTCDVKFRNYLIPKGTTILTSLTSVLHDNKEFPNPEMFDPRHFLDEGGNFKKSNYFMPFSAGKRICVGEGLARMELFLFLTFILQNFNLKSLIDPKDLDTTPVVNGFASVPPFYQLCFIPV
Chain of CYP2C9 (P11712 whole entry): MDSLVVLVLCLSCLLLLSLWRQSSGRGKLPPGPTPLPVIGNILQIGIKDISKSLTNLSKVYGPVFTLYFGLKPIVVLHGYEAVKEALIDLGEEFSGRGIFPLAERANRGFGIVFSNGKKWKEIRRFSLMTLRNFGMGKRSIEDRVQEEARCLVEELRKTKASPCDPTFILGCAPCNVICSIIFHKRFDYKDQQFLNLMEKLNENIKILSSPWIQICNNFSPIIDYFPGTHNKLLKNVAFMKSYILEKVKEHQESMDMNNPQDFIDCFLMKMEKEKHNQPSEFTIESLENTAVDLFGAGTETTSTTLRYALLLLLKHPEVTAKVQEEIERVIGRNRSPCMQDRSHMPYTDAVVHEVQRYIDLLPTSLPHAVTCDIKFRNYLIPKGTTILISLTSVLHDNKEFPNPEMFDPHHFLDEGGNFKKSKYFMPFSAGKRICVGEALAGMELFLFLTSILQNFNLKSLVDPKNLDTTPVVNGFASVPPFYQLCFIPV

- IC50 [3]: 8.4 nM
- remaining at 2 h, 100 µM [6]: 69.9%
- inhibition at 0.25 h, 10 µM (CYP2C19): 23.4%
- remaining at 1 h, 100 µM [7]: 97.3%
- remaining at 1 h, 100 µM [8]: 93.1%
- remaining at 1 h, 100 µM [9]: 51.5%
- half-life at 100 µM [10]: > 2 h
- half-life [11]: 5.34 h
- DC50 [13]: 19.5 nM
- IC50 (MCF7 [15]): 73 nM
- Activity [17]: inactive
- remaining at 1 h, 100 µM [18]: 56.4%
- inhibition at 0.25 h, 10 µM (CYP2C9): 32.5%
- Activity [19]: Active
- Activity [20]: 83.5%
- Vd [21]: 16.3 L/kg
- Activity [22]: 73.4%
- AUC(0-t) at 24 h [23]: 14000 ng·h/mL
- Papp A→B at 2 h, 2 µM [24]: 0.48 ×10⁻⁶ cm/s
SMILES: Cc1cc(Nc2nc(NCc3ccc(F)cc3F)nc3c2cnn3C2CCN(C(=O)C3CCN(c4ccc5c(c4)C(=O)N(C4CCC(=O)NC4=O)C5=O)CC3)CC2)n[nH]1 (configuration not stated)
- Activity [1]: Non-Toxic
- Activity [2]: Non-Toxic
- Activity [4]: Non-Toxic
- inhibition (MCF7 [5]): Tde
- inhibition (MCF7 [12]): Dose-Dependent Effect
- inhibition (MCF7 [14]): Dose-Dependent Effect
- Activity (MCF7 [16]): Active
- inhibition (Mus musculus): Active
